In patent US11739098B2 (BRISTOL-MYERS SQUIBB COMPANY, priority 2017, dated 2023) one finds IC50 data, which are given here for eleven compounds.

SMILES strings stand for the structures. pIC50: −log10 of the molar value.

Holding throughout (format): cell-based
For one assay, the target named is T1, human TLR9 (Homo sapiens, UniProt Q9NR96).
T1 construct: host or cells: HEK-Blue cells (HEK293-derived reporter line)
T1 sequence (Q9NR96 26-1032): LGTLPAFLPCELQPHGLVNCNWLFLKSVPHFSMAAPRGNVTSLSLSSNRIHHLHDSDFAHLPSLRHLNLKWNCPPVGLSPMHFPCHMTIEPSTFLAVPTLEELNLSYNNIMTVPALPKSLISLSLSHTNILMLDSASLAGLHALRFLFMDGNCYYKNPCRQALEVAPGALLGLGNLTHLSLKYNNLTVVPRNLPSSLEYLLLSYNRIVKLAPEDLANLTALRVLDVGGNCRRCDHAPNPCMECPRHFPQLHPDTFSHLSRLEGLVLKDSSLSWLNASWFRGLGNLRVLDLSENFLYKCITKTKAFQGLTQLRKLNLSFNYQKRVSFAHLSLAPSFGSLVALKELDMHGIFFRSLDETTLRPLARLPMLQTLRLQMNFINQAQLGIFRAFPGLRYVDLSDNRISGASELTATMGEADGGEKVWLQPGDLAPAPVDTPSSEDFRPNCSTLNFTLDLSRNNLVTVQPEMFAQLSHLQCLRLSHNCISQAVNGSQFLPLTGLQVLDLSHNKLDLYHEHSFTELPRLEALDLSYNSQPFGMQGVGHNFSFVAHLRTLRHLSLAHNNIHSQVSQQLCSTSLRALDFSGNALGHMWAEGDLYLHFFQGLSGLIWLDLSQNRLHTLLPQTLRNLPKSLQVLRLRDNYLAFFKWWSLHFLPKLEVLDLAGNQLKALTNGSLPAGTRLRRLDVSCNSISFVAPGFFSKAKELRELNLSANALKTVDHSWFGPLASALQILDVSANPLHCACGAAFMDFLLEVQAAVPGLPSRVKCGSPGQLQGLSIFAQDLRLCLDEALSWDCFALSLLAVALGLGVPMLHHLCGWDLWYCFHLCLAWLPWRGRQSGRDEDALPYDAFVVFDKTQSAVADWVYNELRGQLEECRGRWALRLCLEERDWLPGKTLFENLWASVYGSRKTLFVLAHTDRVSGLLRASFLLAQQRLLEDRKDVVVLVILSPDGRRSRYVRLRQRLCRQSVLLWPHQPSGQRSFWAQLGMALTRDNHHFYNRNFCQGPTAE
As to the kind of experiment: TLR9 inhibition reporter assay (HEK-Blue cells, SEAP reporter, ODN2006 stimulation). The note with it: HEK-Blue cells overexpressing human TLR9, SEAP reporter, ODN2006 5 nM. An outline of the steps:
(§1)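 Cells seeded per well (15000 TLR7, 20,000 TLR8, 25,000 TLR9); compound added over 0.05 nM–50 μM for 30 min at room temperature; agonist added (TLR7 gardiquimod 7.5 μM, TLR8 R848 15.9 μM, TLR9 ODN2006 5 nM); 22 h at 37 °C; SEAP measured; percent inhibition calculated.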

The target in the next assay is T2, human TLR7 (Homo sapiens, UniProt Q9NYK1).
T2 construct: host or cells: HEK-Blue cells (HEK293-derived reporter line)
T2 sequence (Q9NYK1 27-1049): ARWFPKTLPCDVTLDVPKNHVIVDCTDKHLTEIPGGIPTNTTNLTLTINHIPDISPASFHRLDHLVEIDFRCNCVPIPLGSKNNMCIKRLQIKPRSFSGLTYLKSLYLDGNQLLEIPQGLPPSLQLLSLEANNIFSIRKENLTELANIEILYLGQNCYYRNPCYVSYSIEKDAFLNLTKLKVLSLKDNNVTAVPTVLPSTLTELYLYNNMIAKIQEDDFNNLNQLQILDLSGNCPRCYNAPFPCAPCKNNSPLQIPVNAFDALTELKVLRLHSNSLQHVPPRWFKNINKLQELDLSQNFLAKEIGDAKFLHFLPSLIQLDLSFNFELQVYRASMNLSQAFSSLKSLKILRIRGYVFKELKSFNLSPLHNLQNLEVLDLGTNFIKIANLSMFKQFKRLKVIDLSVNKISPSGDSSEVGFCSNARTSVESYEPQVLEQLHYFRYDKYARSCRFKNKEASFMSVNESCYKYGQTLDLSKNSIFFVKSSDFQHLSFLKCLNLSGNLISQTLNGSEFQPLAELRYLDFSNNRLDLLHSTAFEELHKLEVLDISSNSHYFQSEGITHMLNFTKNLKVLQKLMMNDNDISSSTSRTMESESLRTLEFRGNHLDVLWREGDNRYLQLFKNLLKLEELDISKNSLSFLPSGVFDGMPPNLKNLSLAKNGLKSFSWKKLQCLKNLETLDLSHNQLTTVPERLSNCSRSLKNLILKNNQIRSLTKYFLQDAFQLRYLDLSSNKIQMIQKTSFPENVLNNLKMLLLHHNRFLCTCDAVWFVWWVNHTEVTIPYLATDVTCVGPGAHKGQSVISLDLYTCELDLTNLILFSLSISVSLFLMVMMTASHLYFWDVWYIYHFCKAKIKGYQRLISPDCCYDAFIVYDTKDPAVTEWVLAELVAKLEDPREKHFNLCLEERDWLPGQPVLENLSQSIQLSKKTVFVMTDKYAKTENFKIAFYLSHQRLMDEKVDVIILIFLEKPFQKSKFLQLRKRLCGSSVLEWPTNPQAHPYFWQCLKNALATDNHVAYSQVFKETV
As to the kind of experiment: TLR7 inhibition reporter assay (HEK-Blue cells, SEAP reporter, gardiquimod stimulation). Conditions: HEK-Blue cells overexpressing human TLR7, SEAP reporter, gardiquimod 7.5 μM. In short, it runs like this:
as §1

The target of a further assay is T3, human TLR8 (Homo sapiens, UniProt Q9NR97).
T3 construct: host or cells: HEK-Blue cells (HEK293-derived reporter line)
T3 sequence (Q9NR97 27-1041): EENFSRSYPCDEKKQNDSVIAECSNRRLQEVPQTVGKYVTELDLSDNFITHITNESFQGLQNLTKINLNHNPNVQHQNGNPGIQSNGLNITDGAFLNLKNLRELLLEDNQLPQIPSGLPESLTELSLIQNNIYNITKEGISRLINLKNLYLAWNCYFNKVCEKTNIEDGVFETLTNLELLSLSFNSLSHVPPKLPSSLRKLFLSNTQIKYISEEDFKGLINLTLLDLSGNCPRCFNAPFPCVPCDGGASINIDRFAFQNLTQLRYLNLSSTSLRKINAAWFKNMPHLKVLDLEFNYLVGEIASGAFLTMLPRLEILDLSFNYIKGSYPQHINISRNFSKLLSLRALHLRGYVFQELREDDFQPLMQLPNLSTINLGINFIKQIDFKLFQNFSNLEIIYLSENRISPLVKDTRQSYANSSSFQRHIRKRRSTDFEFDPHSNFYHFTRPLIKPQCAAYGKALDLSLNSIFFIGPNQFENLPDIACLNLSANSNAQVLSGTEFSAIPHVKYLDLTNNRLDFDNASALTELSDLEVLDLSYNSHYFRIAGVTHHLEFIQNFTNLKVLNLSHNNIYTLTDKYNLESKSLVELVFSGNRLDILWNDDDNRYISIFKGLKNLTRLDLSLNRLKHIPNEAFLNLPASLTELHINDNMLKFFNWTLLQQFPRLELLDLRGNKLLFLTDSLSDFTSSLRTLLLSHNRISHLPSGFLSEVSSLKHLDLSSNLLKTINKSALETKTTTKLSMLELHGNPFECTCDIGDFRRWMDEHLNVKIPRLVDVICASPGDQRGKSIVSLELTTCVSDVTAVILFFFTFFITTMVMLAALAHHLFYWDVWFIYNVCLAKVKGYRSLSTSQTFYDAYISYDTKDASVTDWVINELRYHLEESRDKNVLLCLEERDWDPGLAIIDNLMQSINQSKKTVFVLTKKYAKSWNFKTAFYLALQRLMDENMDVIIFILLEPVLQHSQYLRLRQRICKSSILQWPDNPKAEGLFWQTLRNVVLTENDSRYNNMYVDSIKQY
As to the kind of experiment: TLR8 inhibition reporter assay (HEK-Blue cells, SEAP reporter, R848 stimulation). The note with it: HEK-Blue cells overexpressing human TLR8, SEAP reporter, R848 15.9 μM. An outline of the steps:
as §1

As to `CC(C)c1c(-c2cc(CO)c3nccn3c2)[nH]c2ccc(C3CCNCC3)cc12` [Example 124, (6-(3-isopropyl-5-(piperidin-4-yl)-1H-indol-2-yl)imidazo[1,2-a]pyridin-8-yl)methanol], the pIC50 is 6.00 to 7.00 at human TLR9, > 7.00 against human TLR7 and > 7.00 on human TLR8.

`Cc1cc(-c2[nH]c3ccc(C4CCN(C(=O)CCN5CCC6CC65)CC4)cc3c2C(C)C)cn2nnnc12` (stereo not drawn) [Example 632, 3-(2-azabicyclo[3.1.0]hexan-2-yl)-1-(4-(3-isopropyl-2-(8-methyltetrazolo[1,5-a]pyridin-6-yl)-1H-indol-5-yl)piperidin-1-yl)propan-1-one]: the pIC50 was 4.30 to 6.00 against human TLR9, > 7.00 at human TLR7 and > 7.00 against human TLR8.

`CNC(=O)CN1CCC(c2ccc3[nH]c(-c4cc(C)c5nc(C)cn5c4)c(C(C)C)c3c2)CC1` [Example 391, 2-(4-(2-(2,8-dimethylimidazo[1,2-a]pyridin-6-yl)-3-isopropyl-1H-indol-5-yl)piperidin-1-yl)-N-methylacetamide]: the pIC50 against human TLR9 is 6.00 to 7.00; against human TLR7, > 7.00; against human TLR8, > 7.00.

As to `CC(C)c1c(-c2cc(C(C)(C)O)c3nccn3c2)[nH]c2ccc(C3CCN(CC(=O)N(C)C)CC3)cc12` [Example 343, 2-(4-(2-(8-(2-hydroxypropan-2-yl)imidazo[1,2-a]pyridin-6-yl)-3-isopropyl-1H-indol-5-yl)piperidin-1-yl)-N,N-dimethylacetamide], the pIC50 is 6.00 to 7.00 against human TLR9, > 7.00 at human TLR7 and 6.00 to 7.00 at human TLR8.

`CC(C)c1c(-c2ccc3nccn3c2)[nH]c2ccc(C3CCN(CC(=O)N(C)C)CC3)cc12` [Example 444, 2-(4-(2-(imidazo[1,2-a]pyridin-6-yl)-3-isopropyl-1H-indol-5-yl)piperidin-1-yl)-N,N-dimethylacetamide]: the pIC50 against human TLR9 was 6.00 to 7.00; on human TLR7, > 7.00; at human TLR8 it was > 7.00.

With `CNCCN1CCC(c2ccc3[nH]c(-c4ccc5nccnc5c4)c(C)c3c2)CC1` [Example 658], the results for the pIC50 against human TLR9, against human TLR7 and against human TLR8 were 6.00 to 7.00, 4.30 to 6.00 and 4.30 to 6.00, respectively.

Regarding `CNC(=O)CN1CCC(c2ccc3[nH]c(-c4cc(C)c5ncsc5n4)c(C(C)C)c3c2)CC1` [Example 406, 2-(4-(3-isopropyl-2-(7-methylthiazolo[5,4-b]pyridin-5-yl)-1H-indol-5-yl)piperidin-1-yl)-N-methylacetamide], the pIC50 at human TLR9 is 4.30 to 6.00; against human TLR7 it was > 7.00; against human TLR8, > 7.00.

On to `CCc1c(-c2ccnc3[nH]ncc23)[nH]c2ccc(C3CCN(CC4(N)CC4)CC3)cc12` [Example 657, 1-((4-(3-ethyl-2-(1H-pyrazolo[3,4-b]pyridin-4-yl)-1H-indol-5-yl)piperidin-1-yl)methyl)cyclopropan-1-amine], for which the figures for the negative logarithm of the IC50 (pIC50) at human TLR9, at human TLR7 and against human TLR8 were 6.00 to 7.00, 6.00 to 7.00 and > 7.00, respectively.

On to `COc1cc(-c2[nH]c3ccc(C4CCNCC4)cc3c2C(C)C)nn2ncnc12` [Example 38, 6-(3-isopropyl-5-(piperidin-4-yl)-1H-indol-2-yl)-8-methoxy-[1,2,4]triazolo[1,5-b]pyridazine], for which the pIC50 was 6.00 to 7.00 against human TLR9, > 7.00 at human TLR7 and > 7.00 on human TLR8.

With `Cc1cc(-c2[nH]c3ccc(C4CCN(C(=O)C5CC(=O)N(C)C5)CC4)cc3c2C(C)C)c2ccccc2n1` (stereo not drawn) [Example 638, 4-(4-(3-isopropyl-2-(2-methylquinolin-4-yl)-1H-indol-5-yl)piperidine-1-carbonyl)-1-methylpyrrolidin-2-one], the pIC50 is < 4.30 against human TLR9, > 7.00 on human TLR7 and 6.00 to 7.00 on human TLR8.

With `CCc1c(C)c(-c2[nH]c3ccc(C4CCN(CC(C)(C)O)CC4)cc3c2C(C)C)cn2ccnc12` [Example 777, 1-(4-(2-(8-ethyl-7-methylimidazo[1,2-a]pyridin-6-yl)-3-isopropyl-1H-indol-5-yl)piperidin-1-yl)-2-methylpropan-2-ol], the pIC50 was 6.00 to 7.00 on human TLR9, > 7.00 against human TLR7 and > 7.00 against human TLR8.
